Assay results taken from patent publication US7943793B2, “Optically active organic acidate-bridged dinuclear platinum(II) complex” (Osaka University, priority 2007, dated 2011).

Columns and labels:
Format in all cases: cell-based
39 kinds of cancer cells = experiment: In vitro cancer growth inhibitory activity, sulforhodamine B, panel of 39 cancer cell lines; settings: average over 39 kinds of cancer cells, 2 days culture with sample
Description: The in vitro cancer growth inhibitory activity was assessed according to the method described in Jpn J Cancer Chemother, 24, 129 (1997) and Cancer Chemothr. Pharmacol., 52 Suppl 1, S74-79 (2003). Namely, a total of 39 different kinds of cancer cells at logarithmic growth phase were separately seeded into wells of 96 well plates, and incubated at 37° C. for 1 day. The cancer cells used were 5 kinds of breast cancer cells (HBC-4, BSY-1, HBC-5, MCF-7, MDA-MB-231), 6 kinds of glioma cancer cells (U251, SF-268, SF-295, SF-539, SNB-75, SNB-78), 5 kinds of colon cancer cells (HCC2998, KM-12, HT-29, HCT-15, HCT-116), 7 kinds of lung cancer cells (NCI-H23, NCL-H226, NCL-H522, NCL-H460, A549, DMS273, DMS114), 1 kind of melanoma cell (LOX-IMVI), 5 kinds of ovarian cancer cells (OVCAR-3, OVCAR-4, OVCAR-5, OVCAR-8, SK-OV-3), 2 kinds of renal cancer cells (RXF-631L, ACHN), 6 kinds of gastric cancer cells (St-4, MKN1, MKN7, MKN28, MKN45, MKN74), and 2 kinds of prostate cancer cells (DU-145, PC-3). Each sample solution was added to the wells on the following day, and culture was continued at 37° C. for another 2 days. Then, the degree of cell growth was determined by the colorimetric measurement using sulforhodamine B. The cancer growth inhibitory activity was assessed based on the average log GI50 (GI50 indicates the concentration required to inhibit 50% of cell growth) against 39 kinds of cancer cells.

[1] = tested on: renal cancer cell RXF631L; experiment: Cancer growth inhibitory activity, renal cancer cell RXF631L; settings: for Cancer growth inhibitory activity (average log GI50): renal cancer cell RXF631L
[2] = tested on: gastric cancer cell MKN-7; experiment: Cancer growth inhibitory activity, gastric cancer cell MKN-7; settings: for Cancer growth inhibitory activity (average log GI50): gastric cancer cell MKN-7
lung cancer cell DMS273 = experiment: Cancer growth inhibitory activity, lung cancer cell DMS273; settings: for Cancer growth inhibitory activity (average log GI50): lung cancer cell DMS273; for cancer growth inhibitory activity relative to oxaliplatin: lung cancer cells, higher than oxaliplatin
colon cancer cell HT-29 = experiment: Cancer growth inhibitory activity, colon cancer cell HT-29; settings: for Cancer growth inhibitory activity (average log GI50): colon cancer cell HT-29; for cancer growth inhibitory activity relative to oxaliplatin: colon cancer cells, stronger than oxaliplatin

Cancer growth inhibitory activity (average log GI50) (39 kinds of cancer cells)	Cancer growth inhibitory activity (average log GI50) [1]	Cancer growth inhibitory activity (average log GI50) [2]	Cancer growth inhibitory activity (average log GI50) (lung cancer cell DMS273)	Cancer growth inhibitory activity (average log GI50) (colon cancer cell HT-29)	Compound	cancer growth inhibitory activity relative to oxaliplatin ([1]; renal cancer cells, stronger than oxaliplatin)	cancer growth inhibitory activity relative to oxaliplatin ([2]; gastric cancer cells, stronger than oxaliplatin)	cancer growth inhibitory activity relative to oxaliplatin (lung cancer cell DMS273)	cancer growth inhibitory activity relative to oxaliplatin (colon cancer cell HT-29)
−5.36					L-tartrate-bridged dinuclear 1S,2S-1,2-trans-cyclohexanediamine platinum(II) complex nitrate [[{Pt(S,S-dach)}2(μ-L-tartH)]NO3•4H2O]				
	−6.03	−6.02	−7.46	−5.96	N[C@@H]1CCCC[C@H]1N.N[C@@H]1CCCC[C@H]1N.O.O.O.O.O=C([O-])[C@@H](O)[C@H](O)C(=O)[O-].O=[N+]([O-])[O-].[Pt+2].[Pt+2] (relative stereo) [[{Pt(R,R-dach)}2(μ-D-tartH)]NO3•4H2O, D-tartrate-bridged dinuclear 1R,2R-1,2-trans-cyclohexanediamine platinum(II) complex nitrate]	about 100 times	about 10 times	about 20 times	about 10 times
−5.99	−4.92	−4.98	−7.31	−7.00	L-tartrate-bridged dinuclear 1R,2R-1,2-trans-cyclohexanediamine platinum(II) complex nitrate [[{Pt(R,R-dach)}2(μ-L-tartH)]NO3•4H2O]			about 20 times	about 100 times

Compound	Cancer growth inhibitory activity (average log GI50) (39 kinds of cancer cells)	Cancer growth inhibitory activity (average log GI50) [1]	Cancer growth inhibitory activity (average log GI50) [2]	Cancer growth inhibitory activity (average log GI50) (lung cancer cell DMS273)	Cancer growth inhibitory activity (average log GI50) (colon cancer cell HT-29)	cancer growth inhibitory activity relative to oxaliplatin ([1]; renal cancer cells, stronger than oxaliplatin)	cancer growth inhibitory activity relative to oxaliplatin ([2]; gastric cancer cells, stronger than oxaliplatin)	cancer growth inhibitory activity relative to oxaliplatin (lung cancer cell DMS273)	cancer growth inhibitory activity relative to oxaliplatin (colon cancer cell HT-29)
O=C1[O][Pt-2]2([NH2+]C3CCCC[C@H]3[NH2+]2)[O]C1=O (stereo partly drawn) [Oxaliplatin, oxalato(1R,2R-1,2-cyclohexanediamine)platinum(II), reference compound]	−5.03	−4.13	−4.68	−6.06	−4.91				
